Assays:
[1] = system: HT-1080 (human lung fibrosarcoma); assay: Cytotoxicity, MTT assay, HT-1080; assay type: cell-based; conditions: Homo sapiens, HT-1080; Table 1; 72 h exposure; read-out: HT-1080 IC50 (MTT)
Text: (§1) Reduction takes place only when mitochondrial reductase enzymes are active, and therefore, conversion is directly related to the number of viable cells which can be quantified by the absorbance of the solution (between λ = 500 and 600 nm) using a spectrophotometer.

MH-22A (mouse hepatoma) [2] = assay: Cytotoxicity, crystal violet (CV) assay, MH-22A; assay type: cell-based; conditions: Mus musculus; Table 1; 72 h exposure; read-out: MH-22A IC50 (CV)
Description: After incubation, the staining solution was removed. The cells were washed 4 times with water.

[3] = Electrochemical oxidation potentials, cyclic voltammetry; assay type: physicochemical; conditions: glassy carbon electrode, dry acetonitrile
Description: A stationary glassy carbon disk electrode (d = 0.5 mm) served as the working electrode, while the counterelectrode was a Pt wire. The oxidation potentials were measured relative to a Ag/Ag^+ reference electrode. Acetonitrile was dried over P2O5 and distilled; the distillate was stored over CaH2 and redistilled just before use. Recrystallized tetrabutylammonium tetrafluoroborate (TBABF4) was used as a supporting electrolyte at 0.1 M concentration.
The electrochemical oxidation of the selected compounds studied in this work was performed by cyclic voltammetry on a stationary glassy carbon electrode in dry acetonitrile; the data is presented in Table 4. The perchlorates of the tested amphiphiles were obtained from the corresponding bromides by treating their abs. MeOH solutions with excess of conc. HClO4 according to the procedure elaborated by Turovska et al..

[4] = previous results; cited from earlier work
[5] = system: HT-1080 (human lung fibrosarcoma); assay: Cytotoxicity, crystal violet (CV) assay, HT-1080; conditions: Homo sapiens, HT-1080, 72 h, read-out: HT-1080 IC50 (CV)
[6] = system: NIH3T3 (mouse embryonic fibroblast); assay: Basal cytotoxicity test, Neutral Red Uptake (NRU) assay; conditions: Mus musculus, NIH3T3, 24 h, read-out: NIH3T3 IC50 (NR)
MH-22A (mouse hepatoma) [7] = assay: Cytotoxicity, MTT assay, MH-22A; assay type: cell-based; conditions: Mus musculus; Table 1; 72 h exposure; read-out: MH-22A IC50 (MTT)
Text: as §1

NIH3T3 = assay: in vitro; conditions: mouse

With `CCOC(=O)C1=C(C[n+]2ccccc2)NC(C[n+]2ccccc2)=C(C(=O)OCC)C1c1ccccc1.[Br-].[Br-]` [compound 1, 1,1'-((3,5-Bis(ethoxycarbonyl)-4-phenyl-1,4-dihydropyridine-2,6-diyl)bis(methylene))-bis(pyridin-1-ium) dibromide] the IC50 [1] was over 100 µg/mL, the IC50 (MH-22A (mouse hepatoma) [2]) was over 100 µg/mL and the “Oxidation potential E^ox” value ([3]; Table 4, vs Ag/Ag+, 0.1 M TBABF4, tested as perchlorates) was 1.57 V. For the same compound, the electrooxidation potential ([3]; cyclic voltammetry) was 1.57–1.58 V, the electrochemical oxidation potential [4] was 1.7 V and the IC50 [5] was over 100 µg/mL. The IC50 [6] was over 1000 µg/mL, the IC50 (MH-22A (mouse hepatoma) [7]) was over 100 µg/mL and the “LD50 (calculated, NIH3T3)” value (NIH3T3) was over 2000 mg/kg.

Reference: article PMC7790557, “Pleiotropic Properties of Amphiphilic Dihydropyridines, Dihydropyridones, and Aminovinylcarbonyl Compounds” (Oxidative Medicine and Cellular Longevity, 2020)
